# Key:
# [1] = test system: patients with PD and constipation; experiment: Phase 2 trial: safety and adverse event profile; assay type: in vivo, human
# Experimental: Each dose period was staggered, so that subjects 1-2 were administered a single dose of the drug at the lowest dose of 25 mg. Once 24 hours have elapsed, and provided there are no safety concerns, the patient was sent home and brought back on day 4-8 for the next dose. During the days the subjects are home, they completed the daily diaries and e-mailed them to the study coordinators. Subjects 3-10 were dosed after the first 2 subjects have been observed for 72 hours, i.e. on Day 4. Subjects 1-2 were also brought back on Day 4-8 and administered a single dose of 50 mg. Once another 24 hours have elapsed and provided there are no safety concerns, the patients were all sent home and instructed to return on Day 7 for the next dosing level. This single dosing regimen was continued until each subject was administered a single dose of 200 mg or has reached a dose limiting toxicity (DLT). DLT was the dose which induces repeated vomiting, diarrhea, abdominal pain or symptomatic postural hypotension within 24 hours of dosing.
# Adverse events were coded using the current version of MedDRA. Severity of AEs were assessed by investigators according to CTCAE (v4.03): Grade 1 is labeled as Mild, Grade 2 as Moderate, and Grade 3 and above as Severe. […] The number (percentage) of subjects who experienced an AE during escalation and fixed dosing periods were summarized by dose level and overall for each stage. The denominator for calculating the percentages were based on the number of subjects ever exposed to each dose and overall.
# [2] = Phase 2 trial: pharmacokinetics of orally administered squalamine (ENT-01); assay type: in vivo; settings: human, based on PK of intravenously administered squalamine in prior clinical studies
# Experimental: Pharmakokinetics: PK data were collected on the 10 patients enrolled in Stage 1 and 10 patients enrolled in Stage 2 to determine the extent of systemic absorption. In Stage 1, PK data were obtained at each visit, pre-medication, at 1, 2, 4, 8 and 24 hours (Table 10). In Stage 2, PK was measured on days 1 and 6 of the randomization period pre-medication, at 1, 2, 4 and 8 hours (Table 11).
# The mean Cmax, Tmax and T1/2 and AUC of the squalamine ion following squalamine (ENT-01) oral dosing for Stage 1 patients. The PK analyses are only approximate, as the lower limit of the validated concentration range was 10 ng/ml; most of the measured concentrations fell below that value. The mean Cmax, Tmax and T1/2 and AUC of the squalamine ion following squalamine (ENT-01) oral dosing for Stage 2 patients. The PK analyses are only approximate, as the lower limit of the validated concentration range was 0.5 ng/ml.
# [3] = test system: patients with PD and constipation; experiment: Phase 2 trial: circadian rhythm of wrist skin temperature; assay type: in vivo, human; settings: fixed dose vs baseline, 12 patients
# Experimental: Assessments were made at baseline and at the end of the fixed dose and washout periods. Circadian system status was evaluated by continuously monitoring wrist skin temperature (Thermochron iButton DS1921H; Maxim, Dallas) following published procedures (Sarabia et al. 2008).
# Circadian rhythm of skin temperature was evaluable in 12 patients (i.e., those who had recordings that extended from baseline through washout). Circadian system functionality was evaluated by continuously monitoring wrist skin temperature using a temperature sensor (Thermochron iButton DS1921H; Maxim, Dallas, TX) (Sarabia et al. 2008). A nonparametric analysis was performed for each participant to characterize DST as previously described (Sarabia et al. 2008; Ortiz-Tudela et al. 2010).
# Briefly, this analysis includes the following parameters: (i) the inter-daily stability (the constancy of 24-hour rhythmic pattern over days, IS); (ii) intra-daily variability (rhythm fragmentation, IV); (iii) average of 10-minute intervals for the 10 hours with the minimum temperature (L10); (iv) average of 10-minute intervals for the 5 hours with the maximum temperature (M5) and the relative amplitude (RA), which was determined by the difference between M5 and L10, divided by the sum of both. Finally, the Circadian Function Index (CFI) was calculated by integrating IS, IV, and RA. Consequently, CFI is a global measure that oscillates between 0 for the absence of circadian rhythmicity and 1 for a robust circadian rhythm (Ortiz-Tudela et al. 2010).
# WT and A53T mice = experiment: In vivo fecal pellet output test; design: species or system mouse; settings: for FPO in the first 15 min: Day 5 vs Day 0
# Experimental: In vivo fecal pellet output: Mice were subjected to the FPO test 1 day prior to the start of dosing with squalamine or vehicle (sterile water) (day 0). Mice were fasted for one hour and then given access to food one hour before FPO testing. On days 1-5 mice were fasted for one hour prior to oral gavage with vehicle or 20, 40, 80, or 120mg/kg squalamine. Oral gavage occurred between 10:00 to 11:00 am daily. On day 5, the FPO test was performed 1 hour after the final dose was administered. Total number of stool pellets produced in the first 15 min and over a 60 min period was measured in each group. Stool water content was measured by comparing wet and dry weights of the stool.
# [4] = test system: myenteric intrinsic primary afferent neurons (IPANs); experiment: Whole-cell patch clamp, divided hemi-dissection preparation, FVB PD mice; assay type: cell-based, mouse; settings: for decrease in sAHP area under the curve / depolarisation of RMP / increase in number of APs at 2× threshold intensity / number of APs at 2× threshold intensity / AP threshold / sAHP area under the curve / RMP: FVB PD
# Experimental: Whole-cell Patch Clamp: Whole-cell patch clamp was performed on a hemi-dissected myenteric plexus preparation as previously described. […]
# Myenteric Primary Afferent Neuron Excitation: Squalamine excites myenteric primary afferent neurons. The effect of squalamine on the excitability of an isolated intestinal segment from the FVB PD mouse was explored using divided hemi-dissection preparations so that neurons are exposed for only half the area of an opened small intestinal segment. In this experiment, the inquiry was whether squalamine influenced the activity of the IPAN through direct interaction or indirectly, by stimulating release of epithelial mediators that influenced IPAN behaviour. Addition of squalamine (30 μM) to Krebs buffer in either the epithelial or the myenteric plexus compartments of the divided hemi-dissection preparation increased IPAN excitability (FIG. 12A-F). […] Addition of squalamine decreased the area under the curve of the sAHP by 77% from 86.8±88.2 to 20.3±25.3 mV.s, and depolarised RMP by 12% from −62±7 to −54±6 mV.
# [5] = Preclinical oral studies in dogs; assay type: in vivo
# [6] = 30 μM added to the myenteric plexus
structure (smiles),measurement,setting,value
"CC(C)[C@@H](CC[C@@H](C)[C@H]1CC[C@H]2[C@@H]3[C@H](O)C[C@H]4C[C@@H](NCCCNCCCCN)CC[C@]4(C)[C@H]3CC[C@]12C)OS(=O)(=O)O (single isomer, unassigned) [squalamine (ENT-01), squalamine]","Diarrhea, patients","[1]; Stage 1, 4/10",40%
same,"nausea, patients","[1]; Stage 1, 4/10",40%
same,"Diarrhea, patients","[1]; Stage 2, 15/34",44%
same,"nausea, patients","[1]; Stage 2, 18/34",52.9%
same,"worsening of hemorrhoids, patients","[1]; both stages, 1/44",2.2%
same,"worsening of acid reflux, patients","[1]; both stages, 2/44",4.5%
same,"flatulence, patients","[1]; both stages, 3/44",6.8%
same,"vomiting, patients","[1]; both stages, 3/44",6.8%
same,"dizziness, patients","[1]; both stages, 8/44",18%
same,"abdominal pain, patients","[1]; both stages, 11/44",32%
same,oral bio-availability (estimated),[2],less than 0.3%
same,relative amplitude (RA),[3]; p=0.001,increasing
same,circadian function index (CFI),[3]; p=0.016,increasing
same,rhythm stability (IS),[3]; p=0.026,increasing
same,rhythm fragmentation (IV),[3]; p=0.031,reducing
same,FPO in the first 15 min,"WT and A53T mice; A53T mice, 20, 40 and 80 mg/kg oral gavage for 5 days",significantly increased
same,fecal water content,"WT and A53T mice; A53T mice, 80 and 120 mg/kg oral",significantly increased
same,fecal water content,"WT and A53T mice; WT mice, 80 mg/kg oral",significantly increased
same,FPO in the first 15 min,"WT and A53T mice; WT mice, 40 and 120 mg/kg oral gavage for 5 days",significantly increased
same,decrease in sAHP area under the curve,[4]; 30 μM added to the epithelium,77%
same,depolarisation of RMP,[4]; 30 μM added to the epithelium,12%
same,increase in number of APs at 2× threshold intensity,[4]; 30 μM added to the epithelium,87%
same,decrease in AP threshold,"[4]; 30 μM added to the epithelium, FVB PD mouse (N=15)",44%
same,number of APs at 2× threshold intensity,"[4]; 30 μM added to the epithelium, before 1.6±0.6",3.1±0.7
same,AP threshold,"[4]; 30 μM added to the epithelium, before 63.7±50.4",35.7±22.3 pA
same,sAHP area under the curve,"[4]; 30 μM added to the epithelium, before 86.8±88.2",20.3±25.3 mV.s
same,RMP,"[4]; 30 μM added to the epithelium, before −62±7",−54±6 mV
same,decrease in sAHP area under the curve,[4]; [6],87%
same,depolarisation of RMP,[4]; [6],13%
same,increase in number of APs at 2× threshold intensity,[4]; [6],214%
same,decrease in AP threshold,"[4]; 30 μM added to the myenteric plexus, FVB PD mouse (N=5)",37%
same,number of APs at 2× threshold intensity,"[4]; 30 μM added to the myenteric plexus, before 1.4±0.5",4.4±2.8
same,AP threshold,"[4]; 30 μM added to the myenteric plexus, before 46.0±31.3",29.0±10.1 pA
same,RMP,"[4]; 30 μM added to the myenteric plexus, before −63±4",−55±6 mV
same,sAHP area under the curve,"[4]; 30 μM added to the myenteric plexus, before −71.9±60.1",-9.6±15.1 mV.s
same,tolerability,[5],well tolerated
